Measured values from patent US11013219B2, “Metabolism-based drug screening platform in bioengineered zebrafish” (Path Therapeutics, Inc., priority 2014, dated 2021).

What was measured:
park2 morphants = assay: Seahorse basal respiration, park2 morphants (Parkinson's Disease model); assay type: in vivo, zebrafish; settings: park2-MO
Experimental: (§1) Next, all positive hits were assayed for improve bioenergetics using Seahorse bioanalyzer (Seahorse, Inc). Briefly, morphant zebrafish were seeded into 24-well Islet Flux plates (Seahorse) and incubated with compound or vehicle for 10 minutes prior to analysis. Complete mitochondrial profile was assessed for each individual larvae. Drugs that improved bioenergetics by 40% were considered candidate drugs.
(§2) Morpholinos directed to scn1a (epilepsy), park2 (neurodegenerative disease), idh1 (brain tumors (astrocytoma/oligodendrogliomas), cdkn2b (oligodendroglioma), h3f3a (oligodendroglioma), snf5 (smarcbla in zebrafish; Atypical Teratoid/Rhabdoid)), and shank3 (Autism Spectrum Disorder) were created and zebrafish larvae exposed as detailed in Example 3.

scn1a morphants [1] = assay: Drug-discovery platform (locomotor screen, then Seahorse), scn1a morphant genetic model; assay type: in vivo, zebrafish; settings: blinded study
Experimental: (§3) 10 mM stock solutions of drugs in DMSO were stored at −80° C. and on the day of assay were diluted in E3 medium to a final concentration of 20 μM. For behavioral assays and Seahorse bioenergetics, 20 μM final concentration was used. Adult wild-type TL zebrafish were raised at the Kurrasch Aquatic Research Laboratory at the University of Calgary under standard conditions (28° C., 14 h light/10 h dark cycle) on a recirculating water system.
(§4) Embryos were obtained by natural spawning from mating pairs, screened for viability and for kcna1 and scn1a morpholino models, embryos were injected with either the kcna1- or scn1a-targeting morpholino at the one cell stage. The embryos were sorted for uptake of the morpholino four hours post-injection and seeded to 96 well plates, wrapped in aluminum foil (i.e., raised in the dark), maintained in a non-CO2 incubator at 28.5° C. until 5 dpf.
(§5) On the day of assay, for the kcna1 and scn1a morpholino models, fish were habituated for 20 minutes under 100% light treated with 20 μm of drugs for 20 minutes, and then assayed for locomotor activity in dark for 20 minutes in the zebrabox (Viewpoint Lifesciences, Lyon, Fr). Larval locomotor activity was analyzed using Zebralab V3 software (Viewpoint Lifesciences, Lyon, Fr). For the PTZ model, at 5 dpf, fish were treated with 10 mM PTZ for 10 minutes and then with 20 μM of drugs for 20 minutes under ambient light, and then assayed for locomotor activity under 100% light for 20 minutes in the zebrabox (Viewpoint Lifesciences, Lyon, Fr). Larval locomotor activity was analyzed using Zebralab V3 software (Viewpoint Lifesciences, Lyon, France).
(§6) For the Seahorse bioenergetics measurements, microinjected kcna1 or scn1a morphants or WT zebrafish were maintained in 96 well plates as previously described. XF24 extracellular flux assay plates (Seahorse Bioscience; Massachusetts), were hydrated overnight with XF Calibrant (pH 7.4). […]

kcna1 morphants = assay: Drug-discovery platform (locomotor screen, then Seahorse), kcna1 morphant genetic model; assay type: in vivo, zebrafish; settings: blinded study
Experimental: as §3, §4, §5, §6

scn1a morphants [2] = assay: Seahorse basal respiration, scn1a morphants; assay type: in vivo; settings: scn1a-MO zebrafish
Experimental: as §1, §2

[3] = system: PTZ-induced hyperactive zebrafish; assay: Seahorse bioenergetic analysis, PTZ-treated larvae; assay type: in vivo; settings: Seahorse Bioanalyzer
Description: One exemplary protocol for measuring oxygen consumption rates (OCR) using Extracellular Flux Analyzer (Seahorse Bioscience, Billerica Mass.) is described below. First, sensor cartridges are hydrated in XF Calibrant Solution in 24-well cell culture microplates overnight at 28.5 C. Prior to experiment, injection ports are filled with appropriate treatments and loaded into XH24 instrument. Staged zebrafish embryos (3 days post fertilization used here) are individually placed in 20 of the 24 wells (4 wells serve as controls) on the islet microplate filled with E3 buffer and islet plate capture screens are placed on top to keep living zebrafish from moving during experiment. Plates are loaded into the instrument and six measurement cycles were taken to establish basal rates, which were then followed by treatment injections and 18 additional measurement cycles. OCRs were calculated at cycles five and six and then averaged to create the basal respiration. […]
Next, all positive hits were assayed for improve bioenergetics using Seahorse bioanalyzer (Seahorse, Inc). […] Complete mitochondrial profile was assessed for each individual larvae. […]
FIG. 4 provides workflow and results of bioenergetic analyses in a hyperactive zebrafish. […] Basal, maximal, non-mitochondrial, and mitochondrial cellular respiration were measured.

kcna1 morphant zebrafish = assay: Seahorse bioenergetic analysis, kcna1 morphants; assay type: in vivo; settings: Seahorse Bioanalyzer; for effect on elevated basal respiration in kcna1 morphant larvae: 24-well plate
Description: One exemplary protocol for measuring oxygen consumption rates (OCR) using Extracellular Flux Analyzer (Seahorse Bioscience, Billerica Mass.) is described below. First, sensor cartridges are hydrated in XF Calibrant Solution in 24-well cell culture microplates overnight at 28.5 C. Prior to experiment, injection ports are filled with appropriate treatments and loaded into XH24 instrument. Staged zebrafish embryos (3 days post fertilization used here) are individually placed in 20 of the 24 wells (4 wells serve as controls) on the islet microplate filled with E3 buffer and islet plate capture screens are placed on top to keep living zebrafish from moving during experiment. Plates are loaded into the instrument and six measurement cycles were taken to establish basal rates, which were then followed by treatment injections and 18 additional measurement cycles. OCRs were calculated at cycles five and six and then averaged to create the basal respiration. FCCP treatment was used to measure maximum OCR and oligomycin was used to measure minimum OCR.
as §1
FIG. 4 provides workflow and results of bioenergetic analyses in a hyperactive zebrafish. […] The plates were loaded into XFe24 Seahorse Bioanalyzer. Basal, maximal, non-mitochondrial, and mitochondrial cellular respiration were measured.

[4] = system: kcna1 zebrafish morphants; assay: Behavioral hyperactivity (locomotion) assay, kcna1 morphants; assay type: in vivo; settings: larvae 5 days post fertilization; 10 minutes preincubation, assayed 20 minutes
Experimental: This Example utilizes the drug screening assay disclosed herein using morpholino-injected embryos to transiently knockdown genes of interest. Here, we compare three “epileptic” models for phenotypes in the behavioral assay: pharmacological-induction model (PTZ) and two genetic knockdown models (kcna1 and scn1a morphants).
Larvae were treated with morpholinos to kcna1 and scn1a as described above.
Zebrafish larvae (5 days post fertilization) were seeded into 96 well microliter plates containing vehicle solution and monitored for 20 minutes for hyperactivity. Morphants and WT zebrafish were exposed to drug for 10 minutes preincubation and then assayed for changes in hyperactivity for 20 minutes (Zebralab box). Drugs that decreased hyperactivity behavior by 40% in morphants were identified as “positive hits.”
These positive hits were then verified by conducting a dose-response relationship using hyperactivity as readout.

kcna1 mutants = assay: Seahorse basal respiration, kcna1 genetic mutant larvae; assay type: in vivo, zebrafish; settings: larvae with increased basal respiration washed with PBS and treated
Experimental: This example confirms that the results of drug screens using zebrafish morphants are the same in zebrafish bearing corresponding germline mutations. kcna1^+/− zebrafish were generated as described in Example 1. Heterozygous kcna1^+/− F1s were incrossed and the offspring examined in a behavioral monitoring chamber (Zebralab). We assume ¾ of the progeny are WT or heterozygotes and ¼ are mutants.
Next, a similar experiment was conducted to confirm that kcna1 mutants display a similar phenotype for mitochondrial function (e.g., increased mitochondrial function). Larvae were seeded into 24-well plates and assayed in the Seahorse machine for altered bioenergetics as discussed above. […] Increased basal respiration levels in approximately 25% of the embryos were also detected, as would be expected for a homozygous recessive mutation. […] Genotype was subsequently confirmed by qPCR (FIG. 9D).

shank3 morphants = assay: Seahorse basal respiration, shank3 morphants (ASD and schizophrenia model); assay type: in vivo, zebrafish; settings: shank3-MO
Experimental: as §1, §2

smarcbla morphants = assay: Seahorse basal respiration, smarcbla morphants (AT/RT model); assay type: in vivo, zebrafish; settings: smarcbla-MO
Experimental: as §1, with “larvae.” for “larvae. Drugs that improved bioenergetics by 40% were considered candidate drugs.”
as §2

cdkn2b morphants = assay: Seahorse basal respiration, cdkn2b morphants (glioblastoma model); assay type: in vivo, zebrafish; settings: cdkn2b-MO
Experimental: as §1, §2

kcna1 mutant zebrafish = assay: EEG / extracellular field recordings on live zebrafish larvae; assay type: in vivo; settings: kcna1 mutants plus vorinostat (10 μM)
Experimental: First, EEG recordings on live zebrafish were conducted. Briefly, acute seizure-like activity is measured in WT and mutant zebrafish larvae (5 dpf). Extracellular field recordings were obtained from the optic tectum of zebrafish larvae exposed first to vehicle, then washed out and then exposed to candidate drugs. Recordings are collected over 20 minutes and any decrease in small-amplitude “interictal”-like activity and/or large-amplitude “ictal”-like activity is quantified.

Kv1.1 null mice = assay: Video EEG seizure recording in Kv1.1 rodent model; assay type: in vivo; settings: three Kv1.1−/− mice; 20 mg/kg, twice a day, three consecutive days (PND 46-48) vs no treatment (PND 43-45); Two-way ANOVA, F=27.7, p<0.01
Experimental: Second, candidate drugs that decrease interictal-and/or ictal-like activity in mutant zebrafish lines are then validated in rodent models. Two rodent lines that contain coding deletions in the mammalian orthologs to the zebrafish mutants were used. Candidate drugs were injected intracranially and a decrease in seizure behaviors are monitored using video and […].
Briefly, mice were anesthetized with 3% isofluorane for 2 minutes. Eye glue was applied to the mouse, and anesthesia […] to 2% isofluorane. A “toe pinch” was administered to check anesthetic effect. The surgical area was then shaved while still connected to anesthesia. The anesthesia was increased to 2.5% isofluorane and the anesthetic cone placed over the nose. […]
Vorinostat (Drug #90) treatment reduces seizure occurrence in Kv1.1 null mice. Shown is a representative example of an electrographic seizure recorded from a Kv1.1−/−mouse. Three sets of epidural electroencephalogram (EEG) electrodes simultaneously recorded the signals across the rostral (top trace), medial (middle), and caudal (bottom trace) dorsal aspect of the neocortex. Bar graph of the mean number of seizures per day recorded from three Kv1.1−/−mice. Mice were recorded 24 hours per day for 3 consecutive days (No treatment, PND 43-45) and then received vorinostat injections (20 mg/kg, twice a day) for the next three consecutive days (PND 46-48).

Structure (SMILES): N[C@@H](Cc1ccc(O)c(O)c1)C(=O)O [L-DOPA]
- effect on increased basal respiration in park2 morphants (park2 morphants): reverses this increased bioenergetics to WT levels

Structure (SMILES): CC(Cc1ccccc1)(NC(=O)CN)c1ccccc1 (stereo not shown) [Remacemide]
- uncovered by the screening platform in genetic model (scn1a morphants) (scn1a morphants [1]): would not have uncovered
- uncovered by the screening platform in genetic model (kcna1 morphants) (kcna1 morphants): would not have uncovered

Structure (SMILES): C[C@H](NCc1ccc(OCc2cccc(F)c2)cc1)C(N)=O [Safinamide]
- uncovered by the screening platform in genetic model (scn1a morphants) (scn1a morphants [1]): would not have uncovered
- uncovered by the screening platform in genetic model (kcna1 morphants) (kcna1 morphants): would not have uncovered

Structure (SMILES): CC(=O)N1N=C(c2ccc(N)cc2)c2cc3c(cc2C[C@H]1C)OCO3 [Talampanel]
- uncovered by the screening platform in genetic model (scn1a morphants) (scn1a morphants [1]): would not have uncovered
- uncovered by the screening platform in genetic model (kcna1 morphants) (kcna1 morphants): would not have uncovered

Structure (SMILES): CCCC(CCC)C(=O)O [Valproic acid]
- effect on increased basal respiration in scn1a morphants (scn1a morphants [2]): reduce basal respiration to WT levels
- events via which elevated basal respiration was blocked, PTZ treated larvae [3]: non-mitochondrial-mediated events
- effect on elevated basal respiration in PTZ treated larvae ([3]; 24-well plate): blocked
- events via which increased respiration was blocked, kcna1 morphants (kcna1 morphant zebrafish): mitochondrial-mediated events
- effect on elevated basal respiration in kcna1 morphant larvae (kcna1 morphant zebrafish): blocked
- effect on hyperactivity of kcna1 morphants [4]: no effect
- effect on increased basal respiration in kcna1 mutant larvae (kcna1 mutants): decreased

Structure (SMILES): O=C1CCc2ccc(OCCCCN3CCN(c4cccc(Cl)c4Cl)CC3)cc2N1 [aripiprazole]
- effect on increased basal respiration in shank3 morphants (shank3 morphants): Neither resperidon nor aripiprazole were effective

Structure (SMILES): CC(C)C[C@H]1C(=O)N2CCC[C@H]2[C@]2(O)O[C@](NC(=O)[C@@H]3C=C4c5cccc6[nH]c(Br)c(c56)C[C@H]4N(C)C3)(C(C)C)C(=O)N12 [bromocriptine]
- effect on increased basal respiration in park2 morphants (park2 morphants): no effect

Structure (SMILES): N.N.[Cl][Pt][Cl] [cisplatin]
- effect on increased basal respiration in smarcbla morphants (smarcbla morphants): reverses this increased bioenergetics to WT levels
- effect on increased basal respiration in cdkn2b morphants (cdkn2b morphants): reverses this increased bioenergetics to WT levels

Structure (SMILES): O=P1(N(CCCl)CCCl)NCCCO1 (stereo not shown) [cyclophosphamide]
- effect on increased basal respiration in smarcbla morphants (smarcbla morphants): no effect

Structure (SMILES): Cc1nc2n(c(=O)c1CCN1CCC(c3noc4cc(F)ccc34)CC1)CCCC2 [resperidon]
- effect on increased basal respiration in shank3 morphants (shank3 morphants): Neither resperidon nor aripiprazole were effective

Structure (SMILES): O=C(CCCCCCC(=O)Nc1ccccc1)NO [vorinostat]
- effect on seizure-like activity (EEG traces) (kcna1 mutant zebrafish): blocks
- events via which increased respiration was blocked, kcna1 morphants (kcna1 morphant zebrafish): mitochondrial-mediated events
- effect on elevated basal respiration in kcna1 morphant larvae (kcna1 morphant zebrafish): blocked
- number of seizures per day (video EEG) (Kv1.1 null mice): significantly reduced
- effect on increased basal respiration in kcna1 mutant larvae (kcna1 mutants): decreased
